Assay results from the supplement of paper PMC8612539.

Tested on: Escherichia coli
Assay: minimum inhibitory concentration (MIC)
Protocol: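 Broth microdilution MIC (Sensititre BOPO7F bovine plate, CLSI methods) of 19 antimicrobials against field isolates of P. multocida, M. haemolytica, H. somni (deep nasopharyngeal swabs) and E. coli, Enterococcus spp. (rectal swabs) from weaned dairy heifers. Incubation 16-24 h at 35 C. MIC is the lowest concentration preventing visible growth. Values with <= or > lie at the tested range limits. Trimethoprim-sulfamethoxazole is given as the trimethoprim component of a 1:19 mixture.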

For `COc1cc(Cc2cnc(N)nc2N)cc(OC)c1OC.Cc1cc(NS(=O)(=O)c2ccc(N)cc2)no1` [trimethoprim-sulfamethoxazole], the minimum inhibitory concentration (isolate (source animal id): 171) was ≤ 2 µg/mL, the minimum inhibitory concentration (isolate (source animal id): 172) was ≤ 2 µg/mL and the minimum inhibitory concentration (isolate (source animal id): 173) was ≤ 2 µg/mL. For the same compound, the minimum inhibitory concentration (isolate (source animal id): 174) was ≤ 2 µg/mL, the minimum inhibitory concentration (isolate (source animal id): 175) was ≤ 2 µg/mL and the minimum inhibitory concentration (isolate (source animal id): 176) was ≤ 2 µg/mL. The minimum inhibitory concentration (isolate (source animal id): 177) was ≤ 2 µg/mL, the minimum inhibitory concentration (isolate (source animal id): 178) was ≤ 2 µg/mL and the minimum inhibitory concentration (isolate (source animal id): 179) was ≤ 2 µg/mL. For the same compound, the minimum inhibitory concentration (isolate (source animal id): 180) was ≤ 2 µg/mL, the minimum inhibitory concentration (isolate (source animal id): 181) was ≤ 2 µg/mL and the minimum inhibitory concentration (isolate (source animal id): 182) was ≤ 2 µg/mL. For the same compound, the minimum inhibitory concentration (isolate (source animal id): 183) was ≤ 2 µg/mL, the minimum inhibitory concentration (isolate (source animal id): 184) was ≤ 2 µg/mL and the minimum inhibitory concentration (isolate (source animal id): 185) was ≤ 2 µg/mL. The minimum inhibitory concentration (isolate (source animal id): 186) was ≤ 2 µg/mL, the minimum inhibitory concentration (isolate (source animal id): 187) was ≤ 2 µg/mL and the minimum inhibitory concentration (isolate (source animal id): 188) was > 2 µg/mL. For the same compound, the minimum inhibitory concentration (isolate (source animal id): 189) was ≤ 2 µg/mL, the minimum inhibitory concentration (isolate (source animal id): 190) was > 2 µg/mL and the minimum inhibitory concentration (isolate (source animal id): 191) was ≤ 2 µg/mL. For the same compound, the minimum inhibitory concentration (isolate (source animal id): 192) was ≤ 2 µg/mL, the minimum inhibitory concentration (isolate (source animal id): 193) was ≤ 2 µg/mL and the minimum inhibitory concentration (isolate (source animal id): 194) was ≤ 2 µg/mL. The minimum inhibitory concentration (isolate (source animal id): 195) was ≤ 2 µg/mL, the minimum inhibitory concentration (isolate (source animal id): 196) was ≤ 2 µg/mL and the minimum inhibitory concentration (isolate (source animal id): 197) was ≤ 2 µg/mL. For the same compound, the minimum inhibitory concentration (isolate (source animal id): 198) was > 2 µg/mL, the minimum inhibitory concentration (isolate (source animal id): 199) was ≤ 2 µg/mL and the minimum inhibitory concentration (isolate (source animal id): 200) was ≤ 2 µg/mL. The minimum inhibitory concentration (isolate (source animal id): 201) was ≤ 2 µg/mL, the minimum inhibitory concentration (isolate (source animal id): 202) was ≤ 2 µg/mL and the minimum inhibitory concentration (isolate (source animal id): 203) was ≤ 2 µg/mL. For the same compound, the minimum inhibitory concentration (isolate (source animal id): 204) was ≤ 2 µg/mL, the minimum inhibitory concentration (isolate (source animal id): 205) was ≤ 2 µg/mL and the minimum inhibitory concentration (isolate (source animal id): 206) was ≤ 2 µg/mL. For the same compound, the minimum inhibitory concentration (isolate (source animal id): 207) was ≤ 2 µg/mL, the minimum inhibitory concentration (isolate (source animal id): 208) was ≤ 2 µg/mL and the minimum inhibitory concentration (isolate (source animal id): 209) was ≤ 2 µg/mL. For the same compound, the minimum inhibitory concentration (isolate (source animal id): 210) was ≤ 2 µg/mL, the minimum inhibitory concentration (isolate (source animal id): 211) was ≤ 2 µg/mL and the minimum inhibitory concentration (isolate (source animal id): 212) was ≤ 2 µg/mL. The minimum inhibitory concentration (isolate (source animal id): 213) was ≤ 2 µg/mL, the minimum inhibitory concentration (isolate (source animal id): 214) was ≤ 2 µg/mL and the minimum inhibitory concentration (isolate (source animal id): 215) was ≤ 2 µg/mL. The minimum inhibitory concentration (isolate (source animal id): 216) was > 2 µg/mL, the minimum inhibitory concentration (isolate (source animal id): 217) was ≤ 2 µg/mL and the minimum inhibitory concentration (isolate (source animal id): 218) was ≤ 2 µg/mL. The minimum inhibitory concentration (isolate (source animal id): 219) was ≤ 2 µg/mL, the minimum inhibitory concentration (isolate (source animal id): 220) was ≤ 2 µg/mL and the minimum inhibitory concentration (isolate (source animal id): 221) was ≤ 2 µg/mL. For the same compound, the minimum inhibitory concentration (isolate (source animal id): 222) was ≤ 2 µg/mL, the minimum inhibitory concentration (isolate (source animal id): 223) was ≤ 2 µg/mL and the minimum inhibitory concentration (isolate (source animal id): 224) was ≤ 2 µg/mL. The minimum inhibitory concentration (isolate (source animal id): 225) was ≤ 2 µg/mL, the minimum inhibitory concentration (isolate (source animal id): 226) was > 2 µg/mL and the minimum inhibitory concentration (isolate (source animal id): 227) was ≤ 2 µg/mL. For the same compound, the minimum inhibitory concentration (isolate (source animal id): 228) was ≤ 2 µg/mL, the minimum inhibitory concentration (isolate (source animal id): 229) was > 2 µg/mL and the minimum inhibitory concentration (isolate (source animal id): 230) was ≤ 2 µg/mL. The minimum inhibitory concentration (isolate (source animal id): 231) was ≤ 2 µg/mL, the minimum inhibitory concentration (isolate (source animal id): 232) was ≤ 2 µg/mL and the minimum inhibitory concentration (isolate (source animal id): 233) was ≤ 2 µg/mL. For the same compound, the minimum inhibitory concentration (isolate (source animal id): 234) was ≤ 2 µg/mL, the minimum inhibitory concentration (isolate (source animal id): 235) was ≤ 2 µg/mL and the minimum inhibitory concentration (isolate (source animal id): 236) was ≤ 2 µg/mL. For the same compound, the minimum inhibitory concentration (isolate (source animal id): 237) was ≤ 2 µg/mL, the minimum inhibitory concentration (isolate (source animal id): 238) was ≤ 2 µg/mL and the minimum inhibitory concentration (isolate (source animal id): 239) was ≤ 2 µg/mL. For the same compound, the minimum inhibitory concentration (isolate (source animal id): 240) was ≤ 2 µg/mL, the minimum inhibitory concentration (isolate (source animal id): 241) was ≤ 2 µg/mL and the minimum inhibitory concentration (isolate (source animal id): 242) was ≤ 2 µg/mL. For the same compound, the minimum inhibitory concentration (isolate (source animal id): 243) was ≤ 2 µg/mL, the minimum inhibitory concentration (isolate (source animal id): 244) was ≤ 2 µg/mL and the minimum inhibitory concentration (isolate (source animal id): 245) was ≤ 2 µg/mL. For the same compound, the minimum inhibitory concentration (isolate (source animal id): 246) was ≤ 2 µg/mL, the minimum inhibitory concentration (isolate (source animal id): 247) was ≤ 2 µg/mL and the minimum inhibitory concentration (isolate (source animal id): 248) was ≤ 2 µg/mL. For the same compound, the minimum inhibitory concentration (isolate (source animal id): 249) was ≤ 2 µg/mL, the minimum inhibitory concentration (isolate (source animal id): 250) was ≤ 2 µg/mL and the minimum inhibitory concentration (isolate (source animal id): 251) was ≤ 2 µg/mL. For the same compound, the minimum inhibitory concentration (isolate (source animal id): 252) was ≤ 2 µg/mL, the minimum inhibitory concentration (isolate (source animal id): 253) was ≤ 2 µg/mL and the minimum inhibitory concentration (isolate (source animal id): 254) was ≤ 2 µg/mL. The minimum inhibitory concentration (isolate (source animal id): 255) was ≤ 2 µg/mL, the minimum inhibitory concentration (isolate (source animal id): 256) was ≤ 2 µg/mL and the minimum inhibitory concentration (isolate (source animal id): 257) was ≤ 2 µg/mL. The minimum inhibitory concentration (isolate (source animal id): 258) was ≤ 2 µg/mL, the minimum inhibitory concentration (isolate (source animal id): 259) was > 2 µg/mL and the minimum inhibitory concentration (isolate (source animal id): 260) was ≤ 2 µg/mL. The minimum inhibitory concentration (isolate (source animal id): 261) was ≤ 2 µg/mL, the minimum inhibitory concentration (isolate (source animal id): 262) was ≤ 2 µg/mL and the minimum inhibitory concentration (isolate (source animal id): 263) was ≤ 2 µg/mL. For the same compound, the minimum inhibitory concentration (isolate (source animal id): 264) was ≤ 2 µg/mL, the minimum inhibitory concentration (isolate (source animal id): 265) was ≤ 2 µg/mL and the minimum inhibitory concentration (isolate (source animal id): 266) was ≤ 2 µg/mL. For the same compound, the minimum inhibitory concentration (isolate (source animal id): 267) was ≤ 2 µg/mL, the minimum inhibitory concentration (isolate (source animal id): 268) was ≤ 2 µg/mL and the minimum inhibitory concentration (isolate (source animal id): 269) was ≤ 2 µg/mL. The minimum inhibitory concentration (isolate (source animal id): 270) was ≤ 2 µg/mL, the minimum inhibitory concentration (isolate (source animal id): 271) was ≤ 2 µg/mL and the minimum inhibitory concentration (isolate (source animal id): 272) was ≤ 2 µg/mL. The minimum inhibitory concentration (isolate (source animal id): 273) was ≤ 2 µg/mL, the minimum inhibitory concentration (isolate (source animal id): 274) was > 2 µg/mL and the minimum inhibitory concentration (isolate (source animal id): 275) was > 2 µg/mL. For the same compound, the minimum inhibitory concentration (isolate (source animal id): 276) was ≤ 2 µg/mL, the minimum inhibitory concentration (isolate (source animal id): 277) was ≤ 2 µg/mL and the minimum inhibitory concentration (isolate (source animal id): 278) was ≤ 2 µg/mL. The minimum inhibitory concentration (isolate (source animal id): 279) was ≤ 2 µg/mL, the minimum inhibitory concentration (isolate (source animal id): 280) was ≤ 2 µg/mL and the minimum inhibitory concentration (isolate (source animal id): 281) was ≤ 2 µg/mL. For the same compound, the minimum inhibitory concentration (isolate (source animal id): 282) was ≤ 2 µg/mL, the minimum inhibitory concentration (isolate (source animal id): 283) was ≤ 2 µg/mL and the minimum inhibitory concentration (isolate (source animal id): 284) was ≤ 2 µg/mL. For the same compound, the minimum inhibitory concentration (isolate (source animal id): 285) was ≤ 2 µg/mL, the minimum inhibitory concentration (isolate (source animal id): 286) was > 2 µg/mL and the minimum inhibitory concentration (isolate (source animal id): 287) was > 2 µg/mL. For the same compound, the minimum inhibitory concentration (isolate (source animal id): 288) was ≤ 2 µg/mL, the minimum inhibitory concentration (isolate (source animal id): 289) was ≤ 2 µg/mL and the minimum inhibitory concentration (isolate (source animal id): 290) was ≤ 2 µg/mL. The minimum inhibitory concentration (isolate (source animal id): 291) was > 2 µg/mL, the minimum inhibitory concentration (isolate (source animal id): 292) was > 2 µg/mL and the minimum inhibitory concentration (isolate (source animal id): 293) was ≤ 2 µg/mL. The minimum inhibitory concentration (isolate (source animal id): 294) was ≤ 2 µg/mL, the minimum inhibitory concentration (isolate (source animal id): 295) was > 2 µg/mL and the minimum inhibitory concentration (isolate (source animal id): 296) was ≤ 2 µg/mL. The minimum inhibitory concentration (isolate (source animal id): 297) was ≤ 2 µg/mL, the minimum inhibitory concentration (isolate (source animal id): 298) was > 2 µg/mL and the minimum inhibitory concentration (isolate (source animal id): 299) was ≤ 2 µg/mL. For the same compound, the minimum inhibitory concentration (isolate (source animal id): 300) was ≤ 2 µg/mL, the minimum inhibitory concentration (isolate (source animal id): 301) was ≤ 2 µg/mL and the minimum inhibitory concentration (isolate (source animal id): 302) was ≤ 2 µg/mL. For the same compound, the minimum inhibitory concentration (isolate (source animal id): 303) was ≤ 2 µg/mL, the minimum inhibitory concentration (isolate (source animal id): 304) was > 2 µg/mL and the minimum inhibitory concentration (isolate (source animal id): 305) was ≤ 2 µg/mL. For the same compound, the minimum inhibitory concentration (isolate (source animal id): 306) was ≤ 2 µg/mL, the minimum inhibitory concentration (isolate (source animal id): 307) was ≤ 2 µg/mL and the minimum inhibitory concentration (isolate (source animal id): 308) was ≤ 2 µg/mL. For the same compound, the minimum inhibitory concentration (isolate (source animal id): 309) was ≤ 2 µg/mL, the minimum inhibitory concentration (isolate (source animal id): 310) was ≤ 2 µg/mL and the minimum inhibitory concentration (isolate (source animal id): 311) was > 2 µg/mL. The minimum inhibitory concentration (isolate (source animal id): 312) was ≤ 2 µg/mL, the minimum inhibitory concentration (isolate (source animal id): 313) was ≤ 2 µg/mL and the minimum inhibitory concentration (isolate (source animal id): 314) was ≤ 2 µg/mL. The minimum inhibitory concentration (isolate (source animal id): 315) was ≤ 2 µg/mL, the minimum inhibitory concentration (isolate (source animal id): 316) was > 2 µg/mL and the minimum inhibitory concentration (isolate (source animal id): 317) was > 2 µg/mL. For the same compound, the minimum inhibitory concentration (isolate (source animal id): 318) was ≤ 2 µg/mL, the minimum inhibitory concentration (isolate (source animal id): 319) was ≤ 2 µg/mL and the minimum inhibitory concentration (isolate (source animal id): 320) was ≤ 2 µg/mL. The minimum inhibitory concentration (isolate (source animal id): 321) was > 2 µg/mL, the minimum inhibitory concentration (isolate (source animal id): 322) was ≤ 2 µg/mL and the minimum inhibitory concentration (isolate (source animal id): 323) was > 2 µg/mL. The minimum inhibitory concentration (isolate (source animal id): 324) was ≤ 2 µg/mL, the minimum inhibitory concentration (isolate (source animal id): 325) was > 2 µg/mL and the minimum inhibitory concentration (isolate (source animal id): 326) was ≤ 2 µg/mL. The minimum inhibitory concentration (isolate (source animal id): 327) was ≤ 2 µg/mL, the minimum inhibitory concentration (isolate (source animal id): 328) was ≤ 2 µg/mL and the minimum inhibitory concentration (isolate (source animal id): 329) was ≤ 2 µg/mL. The minimum inhibitory concentration (isolate (source animal id): 330) was ≤ 2 µg/mL, the minimum inhibitory concentration (isolate (source animal id): 331) was ≤ 2 µg/mL and the minimum inhibitory concentration (isolate (source animal id): 332) was ≤ 2 µg/mL. The minimum inhibitory concentration (isolate (source animal id): 333) was ≤ 2 µg/mL, the minimum inhibitory concentration (isolate (source animal id): 334) was > 2 µg/mL and the minimum inhibitory concentration (isolate (source animal id): 335) was ≤ 2 µg/mL. For the same compound, the minimum inhibitory concentration (isolate (source animal id): 336) was ≤ 2 µg/mL, the minimum inhibitory concentration (isolate (source animal id): 337) was ≤ 2 µg/mL and the minimum inhibitory concentration (isolate (source animal id): 338) was > 2 µg/mL. The minimum inhibitory concentration (isolate (source animal id): 339) was ≤ 2 µg/mL, the minimum inhibitory concentration (isolate (source animal id): 340) was ≤ 2 µg/mL and the minimum inhibitory concentration (isolate (source animal id): 341) was ≤ 2 µg/mL.
